# Test results from article PMC5607274, “An iterative compound screening contest method for identifying target protein inhibitors using the tyrosine-protein kinase Yes” (Scientific Reports, 2017).
# Molecular target: T1, human recombinant Yes [a.a. 2–543 (end)] (Homo sapiens, UniProt P07947)
# T1 construct: human recombinant Yes [a.a; 2–543 (end)]; purchased BPS Bioscience 40488
# Assay: ADP-Glo kinase assay, inhibition rates of Yes phosphorylation activity (first and second screening)
# Assay type: biochemical
# Settings: first screening; mean of n = 4 wells; 10 μmol L−1 compound
# In short: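 Hits from a first pass were rescreened after re-dissolution from fresh powder. The first pass reported the mean inhibition rate of quadruplicate wells per compound. Activity was that of recombinant human Yes [a.a. 2–543] kinase, read out with the ADP-Glo ADP-detection method.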
# T1 sequence (P07947 2-543): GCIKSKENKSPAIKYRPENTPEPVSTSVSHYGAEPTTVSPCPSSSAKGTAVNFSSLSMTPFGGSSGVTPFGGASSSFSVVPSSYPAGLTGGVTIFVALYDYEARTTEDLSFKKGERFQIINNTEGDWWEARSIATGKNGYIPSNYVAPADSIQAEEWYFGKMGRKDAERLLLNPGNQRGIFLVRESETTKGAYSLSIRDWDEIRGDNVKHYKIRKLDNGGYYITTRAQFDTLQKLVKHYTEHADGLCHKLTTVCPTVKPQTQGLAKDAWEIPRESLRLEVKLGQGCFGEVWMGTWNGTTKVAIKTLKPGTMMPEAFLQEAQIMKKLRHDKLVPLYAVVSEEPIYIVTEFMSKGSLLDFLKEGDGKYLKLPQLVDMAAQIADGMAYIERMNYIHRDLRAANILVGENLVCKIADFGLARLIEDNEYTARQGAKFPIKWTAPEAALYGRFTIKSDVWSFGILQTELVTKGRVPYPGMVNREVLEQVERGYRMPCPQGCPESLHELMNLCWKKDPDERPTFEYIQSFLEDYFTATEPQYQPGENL
row,SMILES,First screening IR (inhibition rate) [%]
1,Cc1cccc(N=C2NN=C(c3ccc(CCNS(C)(=O)=O)s3)CS2)c1C [Compound Z232307154],37
2,CN(C)c1nc(N)nc(CSCc2nc3ccccc3s2)n1 [Compound Z232651876],-13
3,CC(SCc1nc(N)nc(N(C)C)n1)C(=O)Nc1ccc(F)cc1 (stereo not shown) [Compound Z232651902],-3
4,O=C(NCCc1cnn(-c2ccccc2)c1)c1cnn(-c2ccccc2)c1 [Compound Z234515634],-7
5,O=C(NCc1ccco1)c1cc(-c2cccnc2)nc2c1cnn2Cc1ccccc1Cl [Compound Z234860216],19
6,Cc1c(C#N)c(NC(=O)CN2CCN(c3ncnc4c3cnn4C)CC2)n(Cc2ccccc2)c1C [Compound Z234865770],13
7,Cc1nn(C)c2nc(C3CC3)cc(C(=O)Nc3ccccc3O)c12 [Compound Z235446856],27
8,NC(=S)c1cc(C(=O)c2ccccc2O)cn2c1nc1ccccc12 [Compound Z235467022],5
9,Cc1ccc(-c2noc(CN3CCN(Cc4nc5ccccc5c(=O)n4Cc4ccco4)CC3)n2)cc1 [Compound Z235827834],3
10,CC(=O)c1c[nH]c(C(=O)NCc2csc(-c3ccccc3)n2)c1 [Compound Z236994250],4
11,CCc1ccc(-n2c(-c3ccccc3)cn3c4c(=O)n(CCN5CCOCC5)c(=O)n(C)c4nc23)cc1 [Compound Z237376112],39
12,Cc1cc(Cl)cc(Br)c1OCCNCCN(C)C.Cl [Compound Z237479802],9
13,NS(=O)(=O)c1cccc(S(=O)(=O)Cl)c1 [Compound Z237480338],3
14,CCCCN(C1CCS(=O)(=O)C1)S(C)(=O)=O (stereo not shown) [Compound Z237523250],-21
15,Cc1ccc(-n2c(-c3ccccc3)cn3c4c(=O)n(CCN5CCOCC5)c(=O)n(C)c4nc23)cc1 [Compound Z237731508],14
16,Cc1ccc(C)c(CN2CCN(c3nc4c(c(=O)[nH]c(=O)n4C)n3C/C=C/c3ccccc3)CC2)c1 [Compound Z237731644],5
17,Cc1ccc(C)c(CN2CCN(c3nc4c(c(=O)[nH]c(=O)n4C)n3Cc3ccc(Cl)cc3)CC2)c1 [Compound Z237733696],8
18,Cc1ccc(C)c(Cn2c(N3CCN(C/C=C/c4ccccc4)CC3)nc3c2c(=O)[nH]c(=O)n3C)c1 [Compound Z237733700],36
19,NS(=O)(=O)c1cccc(S(=O)(=O)N2CCCCC2)c1 [Compound Z237744790],-8
20,CCCN(CCC)S(=O)(=O)c1cccc(S(N)(=O)=O)c1 [Compound Z237751694],-9

row,SMILES,First screening IR (inhibition rate) [%]
1,CCN(CC)C(CNC(=O)C1CCN(c2ccc3nnc(C(F)(F)F)n3n2)CC1)c1ccccc1 (stereo not shown) [Compound Z237862822],0
2,CCN(C(=O)c1cc(-c2ccccc2)nc2c1cnn2Cc1cccnc1)c1ccccc1 [Compound Z238053762],-11
3,CC(C)(C)OC(=O)N1CCN(C(=O)c2cc(-c3ccccc3)nc3c2cnn3Cc2ccncc2)CC1 [Compound Z238073806],5
4,CN(C(=O)c1ccc2c(c1)CC(c1ccccc1)OC2=O)c1nc2ccccc2s1 (stereo not shown) [Compound Z238298390],-4
5,O=C(CN1CCOCC1)N1CCN(Cn2nc(-c3ccccc3)n(-c3ccc(F)cc3)c2=S)CC1 [Compound Z238616284],-5
6,CCOC(=O)c1sc2nc(CN3CCOCC3)nc(Nc3ccc(N4CCCCC4)nc3)c2c1C [Compound Z238683848],37
7,CC1CN(CCCNc2ccc([N+](=O)[O-])c3nonc23)CC(C)O1 (stereo not shown) [Compound Z238688270],4
8,Clc1ccc(-c2csc(Nc3ccccc3)n2)s1 [Compound Z238765362],28
9,CC(=O)c1ccc(N2CCN(CC(=O)c3cc(C)[nH]c3C)CC2)c(F)c1 [Compound Z238811284],1
10,CC(C(=O)NC(c1ccccc1)c1ccccc1)N1CCN(c2ncnc3c2cnn3C)CC1 (stereo not shown) [Compound Z238831180],64
11,Cn1c(=O)[nH]c(=O)c2c1nc(CN1CCN(c3cccc(Cl)c3)CC1)n2CCCc1ccccc1 [Compound Z238883342],-1
12,Cn1c(=O)[nH]c(=O)c2c1nc(N1CCC(Cc3ccccc3)CC1)n2CCSc1nnnn1-c1ccccc1 [Compound Z239083338],2
13,Cn1c(=O)[nH]c(=O)c2c1nc(N1CCN(Cc3ccccc3)CC1)n2CCSc1nnnn1-c1ccccc1 [Compound Z239092730],47
14,Cc1nn(C)c2ncc(NC(=O)c3cc(-c4ccco4)nc4onc(C)c34)cc12 [Compound Z239539964],1
15,NC(=O)C1CCCN(c2nc(-c3ccncc3)nc3ccccc23)C1 (stereo not shown) [Compound Z239623050],13
16,COc1ccc(-n2c(-c3ccccc3)cn3c4c(=O)n(CCN5CCCCC5)c(=O)n(C)c4nc23)cc1 [Compound Z241121498],-22
17,O=C(NCc1ccccn1)c1cc(-c2cccnc2)nc2c1cnn2Cc1ccco1 [Compound Z242175442],22
18,Cc1ccc(Cn2c(=O)c3c(nc4n(-c5ccc(S(N)(=O)=O)cc5)c(C)cn34)n(C)c2=O)cc1 [Compound Z244561242],9
19,Nc1nc(NCC(=O)O)nc(NCC2CCCO2)c1[N+](=O)[O-] (stereo not shown) [Compound Z244561600],9
20,COc1ccc(Nc2nc(N3CCCCC3)nc(N)c2[N+](=O)[O-])cc1 [Compound Z245295930],8

row,SMILES,First screening IR (inhibition rate) [%]
1,NC(=O)C(c1ccccc1)N1CCC(CCc2ccc(O)cc2)CC1 (stereo not shown) [Compound Z245304076],-19
2,O=C(Nc1nc2cc(C(F)(F)F)ccc2n1Cc1ccco1)c1ccc2n[nH]nc2c1 [Compound Z245503032],0
3,Cn1c(=O)[nH]c(=O)c2c1nc(N1CCN(C/C=C/c3ccccc3)CC1)n2Cc1ccc(Cl)cc1 [Compound Z246071802],-14
4,O=S(=O)(Nc1cnc2ccccc2c1)c1ccc(Cl)c(Cl)c1 [Compound Z246801514],3
5,Cc1cn2c3c(=O)n(CCN4CCCCC4)c(=O)n(C)c3nc2n1-c1ccc(Oc2ccccc2)cc1 [Compound Z247616328],11
6,CS(=O)(=O)c1ccc(S(=O)(=O)Cl)cc1 [Compound Z248485700],73
7,Cc1ccc(C(CNC(=O)c2cc(Cl)c[nH]2)N2CCOCC2)o1 (stereo not shown) [Compound Z254387106],-10
8,CCn1ncc2c(C(=O)N(C)C)cc(-c3cccs3)nc21 [Compound Z254580980],-9
9,O=C1CN(C(=O)c2nn(-c3ccc(F)cc3)c3c2CCCCC3)CCN1 [Compound Z254636716],10
10,NC(=O)CCn1c(SCc2cn3ccccc3n2)nnc1-c1cccs1 [Compound Z269761360],7
11,O=C(Nc1cccc(C#Cc2cccs2)c1)C1CC2CCCC(C1)C2=O (stereo not shown) [Compound Z271080962],-2
12,CS(=O)(=O)c1ccccc1S(=O)(=O)Cl [Compound Z271096440],59
13,Cc1cn2c3c(=O)n(CC(C)C)c(=O)n(C)c3nc2n1-c1ccc(S(N)(=O)=O)cc1 [Compound Z271111810],4
14,c1ccc(-c2nc(Sc3n[nH]c(-c4ccncc4)n3)nc3ccccc23)cc1 [Compound Z271700602],-1
15,Cc1sc2nc(CN3CCC(C)CC3)nc(N3CCN(C(=O)c4ccccc4F)CC3)c2c1C [Compound Z275104396],0
16,CCn1c(CSc2nnc(-c3sc(C)nc3C)o2)nc2cc(S(=O)(=O)N(C)C)ccc21 [Compound Z275500628],49
17,CCn1c(=O)c2c(nc3n(-c4ccc(N(C)C)cc4)c(C)cn23)n(C)c1=O [Compound Z278205390],10
18,Nc1nccnc1C(=O)Nc1ncc(Cc2cc(F)cc(F)c2)s1 [Compound Z281652038],-1
19,Cc1cn2c3c(=O)n(CC(C)C)c(=O)n(C)c3nc2n1-c1ccc(N(C)C)cc1 [Compound Z281877508],6
20,CCN(CC)Cc1ccc(CNC(=O)c2ccccc2SCc2cscn2)cc1 [Compound Z283831144],33

# Same assay, conditions: second screening, dissolved from fresh powder; n = 4; 10 μmol L−1 compound
row,SMILES,Second screening IR (inhibition rate) [%]
1,Cc1cccc(N=C2NN=C(c3ccc(CCNS(C)(=O)=O)s3)CS2)c1C [Compound Z232307154],-3
2,CCc1ccc(-n2c(-c3ccccc3)cn3c4c(=O)n(CCN5CCOCC5)c(=O)n(C)c4nc23)cc1 [Compound Z237376112],20
3,CS(=O)(=O)c1ccc(S(=O)(=O)Cl)cc1 [Compound Z248485700],-3
4,CS(=O)(=O)c1ccccc1S(=O)(=O)Cl [Compound Z271096440],2
